The source of these data is patent US12570709B2, “Self-assembling peptide amphiphiles displaying a transforming growth factor beta 1 (TGF-ß1) mimetic epitope” (Northwestern University, priority 2021, dated 2026).

Data set [1] in a line: Rheology of PA hydrogels (strain sweep, G′/G″ crossover). It is filed as physicochemical. As to conditions: PA gels, 10 mol % co-assemblies. As for the experimental part:
Gels were made using 2 wt % PA solutions prepared as previously described, using 10 mol % co-assemblies of epitope PA with diluent PA. 12-well chamber slides (Ibidi) were coated with 0.01 mg/mL poly-D-lysine (Sigma-Aldrich) solution and incubated overnight at 37° C. The wells were washed three times with water and air-dried for at least 30 minutes. 120 μL of PA solution was pipetted evenly into the well and gelling solution comprised of 110 mM NaCl, 3 mM KCl, and 25 mM CaCl2 was pipetted dropwise on top of the PA solution. The gels were incubated at 37° C. for 30 minutes, and then excess gelling solution was removed.
Measurements were performed on an Anton Paar MCR302 rheometer with a 25 mm parallel-plate fixture. 120 μL of the PA/HA hybrid slurry was placed on the bottom plate and 30 μL of a 50 mM CaCl2/75 mM NaCl gelling solution was placed on the upper fixture. The fixture was lowered to a gap of 0.5 mm for 10 min during which time a 0.1% oscillatory strain was applied with a 10 rad/s angular frequency. The gap height was allowed to vary to keep the normal force at 0 N. Next, a strain sweep was performed at 10 rad/s from 0.1% to 100% strain to measure the strain to break the gel.

Data set [2] can be described thus: Transverse-relaxation (T2) NMR spectroscopy of PA assemblies. It is filed as physicochemical. To be noted: backbone PA assemblies. As for the experimental part: NMR spectra were acquired at 600 MHz on a Brucker Neo system with QCI-F cryoprobe. NMR spectra for PAs were recorded at 25° C. using TFA-d, H2O/D2O in 9/1 ratio (D2O contains 0.05 wt. % 3-(trimethylsilyl) propionic-2,2,3,3-d4 acid, sodium salt) as solvents. Chemical shifts are reported in part per million (ppm). The […] was 15 μs and typical spectra required 32 scans.
The spin-spin relaxation rates were measured using the Carr-Purcell-Gill-Meiboom pulse sequence with a delay time of 0.2 ms in a variable loop. The peak intensity data was fit to and exponential in the form:
[formula] where τ is the length of the delay time, R2 is the spin-spin relaxation rate and b are the baseline.^2 Cell Culture

Data set [3] deals with human chondrocytes encapsulated in PA hydrogels. As to the kind of experiment: F-actin ICC and confocal microscopy of chondrocytes encapsulated in PA gels. Type of data set: cell-based. As to conditions: three days in vitro, equal concentrations of cells encapsulated. As for the experimental part: (§1) Fixed samples were permeabilized and blocked in a solution of 0.1% (v/v) Triton X-100 and 1% normal horse serum (Invitrogen) for 2 hours at room temperature. Samples were incubated with primary antibodies overnight at 4° C. The following primary antibodies were used: rabbit anti-Sox9 (1:500, Abcam), mouse anti-Aggrecan (1:500, ThermoFisher), mouse anti-Collagen II (1:500, ThermoFisher), and mouse anti-Nuclei (1:500, Sigma-Aldrich). The next day, samples were incubated with AlexaFluor 488 secondary antibody, AlexaFluor 555 secondary antibody, Phalloidin AlexaFluor 488, and/or Phalloidin AlexaFluor 633 (1:1000, Invitrogen) for 2-3 h at room temperature. For 2D cell culture, samples were then incubated with DAPI (1:1000, Invitrogen) for 10 minutes at room temperature. If not already on a glass coverslip, samples were mounted with Immu-Mount (Thermo Scientific) and imaged on a Nikon A1R Spectral microscope. Image analysis was performed using ImageJ software.
Chondrocytes were trypsinized and resuspended in growth media for counting, and then pelleted and resuspended to 6×10^7 cells/mL in growth media. The cell solution was mixed 1:2 v/v with sterile PA solution prepared at 3 wt % in 30 mM NaCl. For gels also encapsulating rhTGF-β1 protein (R&D Systems), soluble protein was added to PA solutions after thermal annealing. 120 μL of PA/cell solution was mixed thoroughly by pipetting gently and then placed into PDL-coated 12-well chamber slides (Ibidi). Sterile gelling solution, comprised of 110 mM NaCl, 3 mM KCl, and 25 mM CaCl2, was pipetted dropwise on top of the PA/cell solution and the gels were incubated for 30 minutes at 37° C. Following incubation, excess gelling solution was removed and 250 μL of growth media was added to each well. The media was removed after 3 days for LDH viability assays as described above. For ICC, after 3 days of in vitro culture, gels were fixed in 4% paraformaldehyde for 30 minutes at room temperature.

For data set [4], the system named is Smad2 phosphorylation (intracellular TGF-β1 signaling) in human chondrocytes. As to the kind of experiment: Western blot of phosphorylated Smad2 after 4 h treatment. It is filed as cell-based. To be noted: for activation of p-Smad2 with addition of pan-TGF-β-neutralizing antibody 1D11: with vs without 1D11. The protocol:
(§2) For western blot of 4 h PA treatments, cells were seeded in 6-well plates at a density of 600,000 cells/well and cultured for 24 h. […] Cells were then treated with PA in solution for 4 h in vitro. For western blot of 3-day PA treatments, cells were seeded in 6-well plates at a density of 230,000 cells/well and cultured for 24 h. Cells were then treated with PA in solution for 3 days in vitro.
(§3) Protein was extracted from cells using Halt Protease and Phosphatase Inhibitor Cocktail (Thermo Scientific) and a BCA assay (Thermo Scientific) was performed to determine protein content of each sample. Cell protein was loaded into and separated using a 4-20% SDS-PAGE gel (Bio-Rad). It was then electrotransferred from the gel to a nitrocellulose membrane (Bio-Rad). The membranes were blocked with 10% milk solution (Bio-Rad) for 30 minutes followed by an overnight incubation with primary antibodies at 4° C. The following primary antibodies were used: rabbit anti-pSmad2 (1:1000, Cell Signaling), rabbit anti-Smad2 (1:1000, Cell Signaling), rabbit anti-Sox9 (1:500, Abcam), mouse anti-Aggrecan (1:500, ThermoFisher), rabbit anti-COMP/Cartilage oligomeric matrix protein (1:500, Abcam), mouse anti-Collagen II (1:500, ThermoFisher), and mouse anti-Actin (1:1000, Novus Bio). Membranes were then incubated with their corresponding secondary HRP-conjugated antibodies (1:1000, ThermoFisher). Protein signals were detected using Radiance Bioluminescent ECL substrate (Azure Biosystems). Densitometry analysis, standardized to total receptor content or actin as a control for protein loading, was performed using ImageJ software. For quantification, experimental triplicate samples were analyzed, and two different experiments were conducted.
In general terms: Immunoblotting shows a protein as a band on a membrane.

Data set [5] has as its system collagen II, COMP, aggrecan and Sox9 in human chondrocytes. The data set is described as follows: Western blot of ECM proteins after three days treatment. It is filed as cell-based. As to conditions: 10 μM, three days in vitro. The protocol:
as §2, §3

Data set [6] is described as follows: Dynamic light scattering of TGF-β1 mimetic peptide. Type of data set: physicochemical. To be noted: peptide alone, 100 mol %, 1 wt %, 25° C. As for the experimental part:
DLS measurements were performed on a Malvern Zetasizer Nano ZSP light scattering spectrometer. The TGF-β1 mimetic peptide alone, without PA, was prepared at 1 wt % as previously described. During the sample measurement, the temperature was kept at 25° C. The sample was equilibrated for 30 seconds before each measurement was taken. The duration of each measurement was 10 seconds, and the measurement angle was 173° backscatter. The attenuator was determined by the instrument automatically, as was the number of accumulations for each run. Each measurement run was repeated 3 times.

For data set [7], the system named is collagen II, aggrecan and F-actin in human chondrocytes. The data set is described as follows: Immunocytochemistry staining and fluorescence intensity analysis after three days. Type of data set: cell-based. To be noted: three days in vitro. As for the experimental part: For immunocytochemistry (ICC), 12-mm glass coverslips were coated with sterile filtered 0.01 mg/mL poly-D-lysine (Sigma-Aldrich) solution and incubated overnight at 37° C. The coverslips were washed three times with sterile water and air-dried for at least 30 minutes. Cells were seeded on coverslips at a density of approximately 3,000 cells/coverslip and cultured for 24 h. Cells were then treated with PA in solution for 3 days in vitro. Following treatment, cells were fixed in 4% paraformaldehyde for 15 minutes at room temperature.
as §1

The conditions of data set [8]: cited from earlier work.

Bridge positions count the residues as written; N and C are the ends. Ends that are not written are not given here. I, II: the chains in the order shown. * marks the point of attachment. Palmitoyl = CCCCCCCCCCCCCCCC(=O)*

For “C16-AAEE (Palmitoyl-AAEE-OH; SMILES CCCCCCCCCCCCCCCC(=O)N[C@@H](C)C(=O)N[C@@H](C)C(=O)N[C@@H](CCC(=O)O)C(=O)N[C@@H](CCC(=O)O)C(=O)O) [Backbone PA-a]”, in data set [1], the “G′/G″ crossover % strain” value amounted to 7.10 ± 1.49% and the “G′/G″ crossover storage modulus” value was 0.55 ± 0.13 kPa. For the same substance, the “1H spin-spin (T2) relaxation rate of terminal alkyl methyl protons” value in data set [2] worked out at 3.67 ± 0.23 s⁻¹. For the same substance, the “cells within the bulk of the gel” value in data set [3] is “Far fewer cells were visible”.
As for “C16-AEAE (Palmitoyl-AEAE-OH; SMILES CCCCCCCCCCCCCCCC(=O)N[C@@H](C)C(=O)N[C@@H](CCC(=O)O)C(=O)N[C@@H](C)C(=O)N[C@@H](CCC(=O)O)C(=O)O) [Backbone PA-b]”, in data set [2], the “1H spin-spin (T2) relaxation rate of terminal alkyl methyl protons” value was 20.49 ± 0.58 s⁻¹.
For the substance “CESPLKRQC (disulfide 1-9 (inferred)) [TGF-β1 mimetic peptide, reference compound]”, the p-Smad2 activation result in data set [4] (50 μM, 4 h, 10 mol % co-assemblies) was “no activation”. Also, the “ECM synthesis (collagen II, COMP, aggrecan, Sox9)” value in data set [5] is “low activation”. Moreover, in data set [6], the “hydrodynamic diameter of micelles” value was “approximately 2 nm” and the “size of aggregates of micelles” value is recorded as ~200 nm. Moreover, the “upregulation of collagen II and aggrecan” value in data set [7] (10 μM, ICC) is listed as “little upregulation of either protein”.
For “TGF PA-b: backbone PA SEQ ID NO: 8 conjugated to cyclic TGF-β1 mimetic peptide (SEQ ID NO: 1) by a linker; co-assembled with diluent Backbone PA-b (chain Palmitoyl-AEAEK-OH; peptide CESPLKRQC; disulfide II:1-II:9; not fully specified (some residues); also: co-assembled with diluent backbone PA-b)”, the “activation of p-Smad2 with addition of pan-TGF-β-neutralizing antibody 1D11” value in data set [4] is listed as “effectively neutralized”.
As to “rhTGF-β1: native recombinant human TGF-β1 (R&D Systems), positive control”, the “activation of p-Smad2 with addition of pan-TGF-β-neutralizing antibody 1D11” value in data set [4] is recorded as “effectively neutralized”. The “half-life in its active form in vivo” value in data set [8] was 2 to 3 min. Further, the aggrecan synthesis entry in data set [7] (10 μM, ICC) is listed as “significantly increased aggrecan synthesis at similar levels”. In addition, in data set [7], the “chondrocyte phenotype (F-actin staining)” value is “maintained healthy chondrocyte phenotypes and prevented hypertrophy”.
